Test results published in patent US10570116B2, “1,4-dicarbonyl-piperidyl derivatives” (Merck Patent GmbH, priority 2015, dated 2020).

Key:
[1] = test system: Tankyrases; assay: Measurement of cellular inhibition of Tankyrase (Axin2 level, Luminex based assay, DLD1 cells); type: cell-based; conditions: increase of Axin2 level, 24 hours, read-out: EC50 [M] TNKS cellular assay
[2] = target: TNKS1 (Homo sapiens (Human), UniProt O95271); assay: biochemical; type: biochemical; conditions: GST-tagged Tnks-1 (1023-1327 aa); read-out: IC50 [M] TNKS1 ELISA
[3] = target: TNKS2 (Homo sapiens (Human), UniProt Q9H2K2); assay: biochemical; type: biochemical; conditions: GST-tagged Tnks-2 (873-1166 aa); read-out: IC50 [M] TNKS2 ELISA
[4] = target: PARP-1 (Homo sapiens (Human), UniProt P09874); assay: Biochemical activity testing of PARP-1: autoparsylation assay (HTRF); conditions: His-tagged Parp-1, autoparsylation HTRF
Sequence of PARP-1 (P09874 whole entry): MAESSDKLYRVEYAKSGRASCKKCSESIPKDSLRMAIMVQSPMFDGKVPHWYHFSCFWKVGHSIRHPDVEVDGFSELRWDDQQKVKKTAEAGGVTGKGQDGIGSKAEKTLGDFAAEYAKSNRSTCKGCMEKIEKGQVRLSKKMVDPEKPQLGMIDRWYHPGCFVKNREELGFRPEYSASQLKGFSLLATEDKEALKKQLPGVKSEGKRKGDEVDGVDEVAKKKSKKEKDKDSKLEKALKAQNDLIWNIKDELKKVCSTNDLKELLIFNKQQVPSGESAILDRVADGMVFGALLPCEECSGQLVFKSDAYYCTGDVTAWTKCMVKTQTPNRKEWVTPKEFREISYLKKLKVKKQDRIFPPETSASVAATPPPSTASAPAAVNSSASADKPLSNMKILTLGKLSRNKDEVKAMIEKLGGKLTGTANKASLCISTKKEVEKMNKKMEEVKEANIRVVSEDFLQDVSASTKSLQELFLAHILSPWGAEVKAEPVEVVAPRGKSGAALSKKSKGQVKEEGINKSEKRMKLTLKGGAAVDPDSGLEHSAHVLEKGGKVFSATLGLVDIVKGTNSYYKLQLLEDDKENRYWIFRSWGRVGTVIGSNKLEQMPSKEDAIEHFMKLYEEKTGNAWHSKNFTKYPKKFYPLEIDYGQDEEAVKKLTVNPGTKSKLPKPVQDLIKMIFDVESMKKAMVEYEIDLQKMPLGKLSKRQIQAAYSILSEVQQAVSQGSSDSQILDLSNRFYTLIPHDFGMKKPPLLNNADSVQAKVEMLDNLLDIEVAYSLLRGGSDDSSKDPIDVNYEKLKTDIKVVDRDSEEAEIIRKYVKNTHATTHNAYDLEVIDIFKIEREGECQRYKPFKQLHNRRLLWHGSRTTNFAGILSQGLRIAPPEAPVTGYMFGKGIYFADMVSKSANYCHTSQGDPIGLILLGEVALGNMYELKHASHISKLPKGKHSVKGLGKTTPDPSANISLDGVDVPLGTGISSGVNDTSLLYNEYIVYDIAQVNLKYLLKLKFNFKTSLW

SMILES | EC50 [1] [M] | IC50 [2] [M] | IC50 [3] [M] | IC50 [4] [nM]
COc1ccc(C(=O)C2CCN(C(=O)CC(C)(C)Cc3nc4c(ccn4C)c(=O)[nH]3)CC2)cn1 [Compound C16, 2-{4-[4-(6-Methoxy-pyridine-3-carbonyl)-piperidin-1-yl]-2,2-dimethyl-4-oxo-butyl}-7-methyl-3,7-dihydro-pyrrolo[2,3-d]pyrimidin-4-one] | 4.1e-09 | 6.1e-10 | 4.1e-10 | –
Cn1cc(C(=O)C2CCN(C(=O)CC(C)(C)Cc3nc4c(ccn4C)c(=O)[nH]3)CC2)cn1 [Compound C17, 2-{2,2-Dimethyl-4-[4-(1-methyl-1H-pyrazole-4-carbonyl)-piperidin-1-yl]-4-oxo-butyl}-7-methyl-3,7-dihydro-pyrrolo[2,3-d]pyrimidin-4-one] | 6.9e-09 | 4.7e-10 | 3.3e-10 | > 30000
CCn1cc(C(=O)C2CCN(C(=O)CC(C)(C)Cc3nc4c(ccn4C)c(=O)[nH]3)CC2)cn1 [Compound C18, 2-{4-[4-(1-Ethyl-1H-pyrazole-4-carbonyl)-piperidin-1-yl]-2,2-dimethyl-4-oxo-butyl}-7-methyl-3,7-dihydro-pyrrolo[2,3-d]pyrimidin-4-one] | 2.8e-09 | 5.8e-10 | 3.6e-10 | > 30000
CC(C)n1cc(C(=O)C2CCN(C(=O)CC(C)(C)Cc3nc4c(ccn4C)c(=O)[nH]3)CC2)cn1 [Compound C19, 2-{4-[4-(1-Isopropyl-1H-pyrazole-4-carbonyl)-piperidin-1-yl]-2,2-dimethyl-4-oxo-butyl}-7-methyl-3,7-dihydro-pyrrolo[2,3-d]pyrimidin-4-one] | 9.3e-09 | 1.3e-09 | 5.8e-10 | –
COc1ccc(C(=O)C2CCN(C(=O)COCc3nc4ccccc4c(=O)[nH]3)CC2)cc1 [Compound C23, 2-{2-[4-(4-Methoxy-benzoyl)-piperidin-1-yl]-2-oxo-ethoxymethyl}-3H-quinazolin-4-one] | 2.6e-08 | 6.3e-09 | 2.1e-09 | –
Cn1cc(C(=O)C2CCN(C(=O)COCc3nc4ccccc4c(=O)[nH]3)CC2)cn1 [Compound C24, 2-{2-[4-(1-Methyl-1H-pyrazole-4-carbonyl)-piperidin-1-yl]-2-oxo-ethoxymethyl}-3H-quinazolin-4-one] | 1e-07 | 2.7e-08 | 1.2e-08 | –
COc1ccc(C(=O)C2CCN(C(=O)COCc3nc4ccccc4c(=O)[nH]3)CC2)cn1 [Compound C25, 2-{2-[4-(6-Methoxy-pyridine-3-carbonyl)-piperidin-1-yl]-2-oxo-ethoxymethyl}-3H-quinazolin-4-one] | 6.4e-08 | 3.6e-08 | 1.2e-08 | –
COc1ccc(C(=O)C2CCN(C(=O)COCc3nc4c(F)cc(F)cc4c(=O)[nH]3)CC2)cc1 [Compound C26, 6,8-Difluoro-2-{2-[4-(4-methoxy-benzoyl)-piperidin-1-yl]-2-oxo-ethoxymethyl}-3H-quinazolin-4-one] | 2.3e-08 | 7.7e-09 | 3e-09 | –
COc1ccc(C(=O)C2CCN(C(=O)COCc3nc4c(F)cc(F)cc4c(=O)[nH]3)CC2)cn1 [Compound C28, 6,8-Difluoro-2-{2-[4-(6-methoxy-pyridine-3-carbonyl)-piperidin-1-yl]-2-oxo-ethoxymethyl}-3H-quinazolin-4-one] | 1e-07 | 3.4e-08 | 1.2e-08 | –
CN(CCc1nc2ccccc2c(=O)[nH]1)C(=O)N1CCC(C(=O)c2cnn(C)c2)CC1 [Compound C31, 4-(1-Methyl-1H-pyrazole-4-carbonyl)-piperidine-1-carboxylic Acid methyl-[2-(4-oxo-3,4-dihydro-quinazolin-2-yl)-ethyl]-amide] | 2.3e-08 | 3e-09 | 2.2e-09 | –
COC(=O)c1ccc(C(=O)C2CCN(C(=O)CC(C)(C)Cc3nc4ccccc4c(=O)[nH]3)CC2)cc1 [Compound C32, 4-{1-[3,3-Dimethyl-4-(4-oxo-3,4-dihydro-quinazolin-2-yl)-butyryl]-piperidine-4-carbonyl}-benzoic Acid Methyl Ester] | 1.1e-07 | 6.8e-10 | 5.6e-10 | –
CC(C)(CC(=O)N1CCC(C(=O)c2ccc(C(=O)O)cc2)CC1)Cc1nc2ccccc2c(=O)[nH]1 [Compound C33, 4-{1-[3,3-Dimethyl-4-(4-oxo-3,4-dihydro-quinazolin-2-yl)-butyryl]-piperidine-4-carbonyl}-benzoic Acid] | 1.5e-07 | 5.1e-10 | 4.5e-10 | –
COC(=O)c1cccc(C(=O)C2CCN(C(=O)CC(C)(C)Cc3nc4ccccc4c(=O)[nH]3)CC2)c1 [Compound C34, 3-{1-[3,3-Dimethyl-4-(4-oxo-3,4-dihydro-quinazolin-2-yl)-butyryl]-piperidine-4-carbonyl}-benzoic Acid Methyl Ester] | 9.9e-09 | 4.8e-10 | 5e-10 | –
COC(=O)c1cccc(C(=O)C2CCN(C(=O)CC(C)(C)Cc3nc4c(C)cccc4c(=O)[nH]3)CC2)c1 [Compound C36, 3-{1-[3,3-Dimethyl-4-(8-methyl-4-oxo-3,4-dihydro-quinazolin-2-yl)-butyryl]-piperidine-4-carbonyl}-benzoic acid methyl ester] | 3.4e-09 | 7.9e-10 | 2.1e-09 | –
COC(=O)c1ccc(C(=O)C2CCN(C(=O)CC(C)(C)Cc3nc4ccccc4c(=O)[nH]3)CC2)cc1C [Compound C38, 4-{1-[3,3-Dimethyl-4-(4-oxo-3,4-dihydro-quinazolin-2-yl)-butyryl]-piperidine-4-carbonyl}-2-methyl-benzoic Acid Methyl Ester] | 9.9e-10 | 5.8e-10 | 3.2e-10 | –
Cc1cc(C(=O)C2CCN(C(=O)CC(C)(C)Cc3nc4ccccc4c(=O)[nH]3)CC2)ccc1C(=O)O [Compound C39, 4-{1-[3,3-Dimethyl-4-(4-oxo-3,4-dihydro-quinazolin-2-yl)-butyryl]-piperidine-4-carbonyl}-2-methyl-benzoic Acid] | 1.3e-07 | 4.3e-10 | 6.1e-10 | –
COC(=O)c1ccc(C(=O)C2CCN(C(=O)CC(C)(C)Cc3nc4c(C)cccc4c(=O)[nH]3)CC2)cc1C [Compound C40, 4-{1-[3,3-Dimethyl-4-(8-methyl-4-oxo-3,4-dihydro-quinazolin-2-yl)-butyryl]-piperidine-4-carbonyl}-2-methyl-benzoic Acid Methyl Ester] | 2.9e-09 | 1.5e-09 | 4.7e-09 | –
Cc1cc(C(=O)C2CCN(C(=O)CC(C)(C)Cc3nc4c(C)cccc4c(=O)[nH]3)CC2)ccc1C(=O)O [Compound C41, 4-{1-[3,3-Dimethyl-4-(8-methyl-4-oxo-3,4-dihydro-quinazolin-2-yl)-butyryl]-piperidine-4-carbonyl}-2-methyl-benzoic Acid] | 1.1e-08 | 5.9e-10 | 8.8e-10 | –
Cc1cc(F)cc2c(=O)[nH]c(C[C@@H](C)CC(=O)N3CCC(C(=O)c4cccc(C(=O)O)c4)CC3)nc12 [Compound C46, 3-{1-[(R)-4-(6-Fluoro-8-methyl-4-oxo-3,4-dihydro-quinazolin-2-yl)-3-methyl-butyryl]-piperidine-4-carbonyl}-benzoic Acid] | 1e-05 | 8.2e-09 | 2.8e-09 | –
Cc1cc(F)cc2c(=O)[nH]c(C[C@H](C)CC(=O)N3CCC(C(=O)c4cccc(C(=O)O)c4)CC3)nc12 [Compound C47, 3-{1-[(S)-4-(6-Fluoro-8-methyl-4-oxo-3,4-dihydro-quinazolin-2-yl)-3-methyl-butyryl]-piperidine-4-carbonyl}-benzoic Acid] | 3e-09 | 3.5e-10 | 2.2e-10 | –
CN(C)Cc1ccc(C(=O)C2CCN(C(=O)CC(C)(C)Cc3nc4ccccc4c(=O)[nH]3)CC2)cc1 [Compound C48, 2-{4-[4-(4-Dimethylaminomethyl-benzoyl)-piperidin-1-yl]-2,2-dimethyl-4-oxo-butyl}-3H-quinazolin-4-one] | 1.3e-07 | 1.4e-08 | 5.3e-09 | –
Cn1cc(C(=O)C2CCN(C(=O)CC(C)(C)Cc3cc4ccccc4c(=O)[nH]3)CC2)cn1 [Compound C49, 3-{2,2-Dimethyl-4-[4-(1-methyl-1H-pyrazole-4-carbonyl)-piperidin-1-yl]-4-oxo-butyl}-2H-isoquinolin-1-one] | 1.3e-09 | 3e-10 | 2.1e-10 | –
C[C@H](CC(=O)N1CCC(C(=O)c2cnn(C)c2)CC1)Cc1cc2ccccc2c(=O)[nH]1 [Compound C50, 3-{(S)-2-Methyl-4-[4-(1-methyl-1H-pyrazole-4-carbonyl)-piperidin-1-yl]-4-oxo-butyl}-2H-isoquinolin-1-one] | 6.8e-10 | 4.4e-10 | 2.4e-10 | –
C[C@@H](CC(=O)N1CCC(C(=O)c2cnn(C)c2)CC1)Cc1cc2ccccc2c(=O)[nH]1 [Compound C51, 3-{(R)-2-Methyl-4-[4-(1-methyl-1H-pyrazole-4-carbonyl)-piperidin-1-yl]-4-oxo-butyl}-2H-isoquinolin-1-one] | 1.2e-08 | 1e-09 | 7.2e-10 | –
CC(C)(CC(=O)N1CCC(C(=O)c2ccc(C(=O)O)cc2)CC1)Cc1cc2ccccc2c(=O)[nH]1 [Compound C52, 4-{1-[3,3-Dimethyl-4-(1-oxo-1,2-dihydro-isoquinolin-3-yl)-butyryl]-piperidine-4-carbonyl}-benzoic Acid] | 8e-08 | 3.3e-10 | 2.5e-10 | –
CC(C)(CC(=O)N1CCC(C(=O)c2cccc(C(=O)O)c2)CC1)Cc1cc2ccccc2c(=O)[nH]1 [Compound C53, 3-{1-[3,3-Dimethyl-4-(1-oxo-1,2-dihydro-isoquinolin-3-yl)-butyryl]-piperidine-4-carbonyl}-benzoic Acid] | 8.7e-07 | 1.1e-09 | 6.9e-10 | –
